Reference: patent US20140348966A1, “GARCINIA BUCHANANII BAKER COMPOUNDS, COMPOSITIONS AND RELATED METHODS” (priority 2011, published 2014)
Counter-ions that a name gives are not always drawn. Like-named read-outs stand apart in the source and are kept apart here.

Legend:
[1] = hydrogen peroxide scavenging assay; format: biochemical; settings: isolated and reference compounds; read-out: H2O2 assay EC50
Description: Hydrogen peroxide scavenging assay was performed in accordance with the method of Ichikawa, M. and colleagues (2002). Sample solutions at appropriate concentration were prepared using phosphate buffer (100 mM, pH 6.0). Sample solution ([…]), phosphate buffer (30 mL, 100 mM, pH 6.0), and hydrogen peroxide solution (10 mL, 500 mM) were mixed in 96-well clear microplate (VWR, Ismaning, Germany). Then peroxidase (40 mL, 150 U/mL) and ABTS (40 mL, 0.1%) were added. The microplate was incubated at 37° C. for 15 min. The absorbance (A) of each well was measured at 414 nm with FLUOstar OPTIMA (BMG LABTECH, Offenburg, Germany). […] After freeze-drying three times 1 MPLC fractions M1-M8 were analyzed in natural concentrations.
E=[(A−Ablank)control−(A−Ablank)test]/(A−Ablank)control·100

[2] = oxygen radical absorbance capacity (ORAC) assay; format: biochemical; settings: isolated and reference compounds
Description: ORAC assay was carried out according to the method of Ou, G. and colleagues (1993) with some modifications. Trolox and FL were used as a standard and a fluorescent probe respectively. Free radicals were produced by AAPH to oxidize FL. Different dilutions of Trolox ([…]) and appropriate dilutions of tested sample were prepared with phosphate buffer (10 mM, pH 7.4). Trolox dilution ([…]) or sample solution were pipetted into a well of 96-well black microplate (VWR) and then FL (150 mL, 10 nM) was added. The reaction mixture was incubated at 37° C. for 30 min Afterward s, fluorescence was measured every 90 sec at the excitation of 485 nm and the emission of 520 nm using FLUOstar OPTIMA. After 3 cycles, AAPH ([…], 240 mM) was added quickly, and then the measurement was resumed and continued up to 90 min (60 cycles in total). The background signal was determined using the first 3 cycles. The ORAC values were calculated according to the method of Ou, G. and colleagues (1993) and expressed as Trolox equivalent (mmol TE/mmol). After freeze-drying in triplicate, MPLC fractions M1-M8 were analyzed in natural concentrations.

[3] = cited from earlier work
[4] = tested on: guinea pig colon circular smooth muscle cells (CSMC); experiment: intracellular recording of slow wave action potentials, colon circular smooth muscle; settings: extract 0.5 g stem bark powder/100 ml Krebs; manniflavanone 41.0 mg/100 mL Krebs
Description: (§1) Calcium imaging and standard intracellular microelectrode recording were used to determine the effect of G. buchananii extract on the discharge and frequency of Ca^2+ transients, Ca^2+ flashes and Ca^2+ waves. Six fractions (M1-M5 and M7) collected using medium pressure liquid chromatography and manniflavanone, a pure compound from M3 were analyzed for the effect on the resting membrane potential and action potentials in intact GBSM preparations, and slow wave action potentials in CSMC in guinea pig and porcine colon.

[5] = tested on: guinea pig gallbladder smooth muscle cells (GBSM); experiment: intracellular microelectrode recording of action potentials, gallbladder smooth muscle; settings: extract 0.5 g stem bark powder/100 ml; manniflavanone 41.0 mg/100 mL Krebs
Description: as §1

guinea pig distal colon = experiment: fecal pellet propulsion motility assay in isolated distal colon (GIMM); settings: MPLC fractions and their main compounds, serosal application in Krebs
Description: Gastrointestinal Motility Assays: Segments (˜10 cm long) of distal colon were pinned on either end in a Sylgard-lined 50 mL organ bath, continuously perfused with oxygenated Krebs solution (rate: 10 mL min^−1) and maintained at temperatures between 36 and 37° C. Tissues were initially allowed to equilibrate for 30 mins in re-circulating Krebs solution. Colonic motility was studied using the Gastronintestinal Motility Monitoring system (GIMM; Med-Associates Inc., Saint Albans, Vt., USA), which included a digital video camera (Catamount Research and Development Inc, St Albans, Vt., USA) to film fecal pellet propulsion. Trials were separated by 5-min recovery periods between successive pellet runs. The GIMM system software calculated velocities by tracking pellets as they traversed colon segments. After initial equilibration, five pellet propulsion trials in vehicle solution were obtained to determine the basal velocity for each tissue preparation. To reduce variations between runs and experiments, the values obtained were used to generate a normalized basal velocity by dividing the values of the 4th-5th runs by the value of the 1st-2nd runs. Garcinia buchananii stem bark extract and test compounds dissolved in 100 mL of Krebs solution were superfused either into the organ bath or into the lumen of the colon using polyethylene tubing [PE 205; outside diameter 9.5 mm (BD-Worldwide, Sparks, Md., USA)]. The effects of extract and test compounds were evaluated by obtaining velocities of four trials taken at 5-min intervals (5-20 min) Normalized velocity data for these treatments were obtained by dividing the test velocities acquired by the average velocity of the five pellet propulsion runs performed in vehicle solution (runs 1-5, above). Normalized data became ratios without units, and were presented as a percent velocity of basal activity for each tissue. Velocities of pellet propulsion were also studied during washout of tissue with Krebs solution (after extract or test compound application) for 20 min
A segment (˜10-12 cm long) of distal colon was pinned on either end in a Sylgard-lined 50 mL organ bath being continuously perfused with oxygenated Krebs solution (rate: 10 mL min^−1) and maintained at temperatures between 36-37° C. Nail-polish-coated guinea-pig pellets similar in shape and size to the “native” colonic fecal pellets were used to determine propulsive velocities using the Gastrointestinal Motility Monitoring system (Med-Associates Inc., Saint Albans, Vt., USA) for filming pellet propulsion as described by Hoffman and others (2010). Velocity was calculated based on the time required for pellets to traverse 5-6 cm of the central colon segment ending 1 cm from the aboral end. Data collection started after 30 minutes of equilibration. A five-minute interval was used to allow equilibration of motor activity between successive pellet runs. Baseline velocities were measured for 20 minutes.
In intraluminal studies, the aqueous extract was prepared by suspending 2 g of G. buchananii bark powder in 100 mL Krebs, whereas 1 g G. buchananii bark powder prepared in the same manner was used for bath (serosal) applications. The extract-Krebs mixture was continuously stirred for 30 minutes and filtered using analytical filter paper (Schleicher and Schuell Blue Ribbon filter paper 589/3; 0.2 μm retention). Garcinia buchananii extract and test compounds were delivered to isolated colons in Krebs solution, and evaluated for effects on pellet propulsion during 20-25 minute time intervals. Intraluminal drug deliveries (350 μL min^−1 Krebs solution) were performed using polyethylene tubing (PE 205; outside diameter 9.5 mm) inserted ˜1.5 cm into the oral end of the segments. In bath deliveries, G. buchananii extract and test compounds were superfused directly into the organ bath. Studies involving PTLC fractions were performed using the organ bath delivery method only.

[6] = tested on: S-neurons in the myenteric ganglia of guinea pig distal colon; experiment: intracellular recording of evoked fast excitatory postsynaptic potentials (fEPSPs); settings: naloxone 10 μmol/L; yohimbine 1 μmol/L
Description: Intracellular Recording: To study fast excitatory postsynaptic potentials, longitudinal muscle-myenteric plexus preparations of guinea pig colon were pinned and stretched in a 2.5 mL Sylgard-lined recording chamber. […] Myenteric ganglia were visualized at ×200 using Hoffman modulation contrast optics on an inverted microscope (Nikon Diaphot, […]., USA). Individual neurons were randomly impaled using glass microelectrodes, which were filled to the shoulder with 1.0 mol L^-1 KCl and topped off with 2.0 mol L^-1 KCl, generating a range of 50-150 MΩ input resistance. Membrane potential was measured with an Axoclamp-2A amplifier (Axon Instruments, Union City, Calif., USA) and the electrical signals were acquired and analyzed using PowerLab Chart version 5.01 (ADlnstruments, Castle Hills, Australia). Input resistance and resting membrane potential were determined for neurons before and after exposure to G. buchananii extract. Using monopolar extracellular electrodes made from Teflon®-insulated platinum wire, synaptic input to myenteric neurons was elicited by direct single pulse stimuli (0.5 ms duration) applied to interganglionic fiber tracts. […] The amplitude was measured by taking the difference in voltage between the peak of each fEPSP and the membrane holding potential. […]

[7] = Values from Wolfe and Liu (stereochemistry of naringenin and taxifolin not stated)

| Structure (SMILES) | EC50 [1] [µM] | ORAC assay [2] [μmol TE/μmol] | other results |
| --- | --- | --- | --- |
| Oc1cc(O)c2c(c1)O[C@H](c1ccc(O)c(O)c1)[C@H](O)C2 [(−)-epicatechin] | 4.1 | 9.65 | ORAC, Literature [3, 7]: 9.14^6 μmol TE/μmol |
| O=C1c2c(cc(O)c([C@@H]3O[C@H](CO)[C@@H](O)[C@H](O)[C@H]3O)c2O)O[C@H](c2ccc(O)c(O)c2)[C@H]1O [Compound 1, (2R,3R)-Taxifolin-6-C-β-D-glucopyranoside] | 11 | 9.57 | – |
| O=C1c2c(cc(O)c([C@@H]3OC(CO)[C@@H](O)[C@H](O)C3O)c2O)O[C@H](c2ccc(O)cc2)[C@H]1O (stereo partly drawn) [Compound 2, (2R,3R)-Aromadendrin-6-C-β-D-glucopyranoside] | 10.9 | 4.23 | – |
| O=C1c2c(O)cc(O)c([C@@H]3C(=O)c4c(O)cc(O)cc4O[C@H]3c3ccc(O)c(O)c3)c2O[C@H](c2ccc(O)c(O)c2)[C@H]1O [Compound 3, (2R,3S,2″R,3″R)-manniflavanone] | 2.8 | 13.73 | slow wave action potentials (SW) in CSMC [4]: inhibits spikes of SW; action potentials in GBSM [5]: inhibits action potentials |
| O=C1c2c(O)cc(O)c([C@@H]3C(=O)c4c(O)cc(O)cc4O[C@H]3c3ccc(O)cc3)c2O[C@H](c2ccc(O)c(O)c2)[C@H]1O [Compound 4, (2R,3S,2″R,3″R)-GB-2] | 2.2 | 12.10 | effect on pellet propulsion velocity (guinea pig distal colon): inhibits guinea pig colon propulsive motility |
| O=C1C[C@@H](c2ccc(O)c(O)c2)Oc2c1c(O)cc(O)c2[C@@H]1C(=O)c2c(O)cc(O)cc2O[C@H]1c1ccc(O)c(O)c1 [Compound 5, (2R,3S,2″S)-2-(3,4-dihydroxyphenyl)-2,2′,3,3′-tetrahydro-5,5,7,7-tetrahydroxy-2′-(3,4-dihydroxyphenyl)-[3,8′-Bi-4H-1-benzopyran]-4,4′-dione] | 14.4 | 10.50 | effect on pellet propulsion velocity (guinea pig distal colon): inhibits guinea pig colon propulsive motility |
| O=C1c2c(O)cc(O)cc2O[C@H](c2ccc(O)c(O)c2)[C@H]1O [Compound 6, (+)-(2R,3R)-Taxifolin] | 11.3 | 7.63 | – |
| O=C1O[C@H]([C@@H](O)CO)C(O)=C1O [ascorbic acid] | 18.5 | 0.34 | – |
| C=CCN1CC[C@]23c4c5ccc(O)c4O[C@H]2C(=O)CC[C@@]3(O)[C@H]1C5 [naloxone, naloxone hydrochloride] | – | – | effect of antagonist alone on fEPSPs [6]: had no effect on fEPSPs |
| O=c1c(O)c(-c2ccc(O)c(O)c2)oc2cc(O)cc(O)c12 [quercetin] | 6.1 | 5.61 | ORAC, Literature ([3]; Values from Ou et al.): 7.28 μmol TE/μmol; ORAC, Literature [3, 7]: 8.04 μmol TE/μmol |
| COC(=O)[C@@H]1[C@H]2C[C@H]3c4[nH]c5ccccc5c4CCN3C[C@@H]2CC[C@@H]1O [yohimbine, yohimbine hydrochloride] | – | – | effect of antagonist alone on fEPSPs [6]: had no effect on fEPSPs |
